Experiments:
kohlrabi plants = assay: Yield production without drought stress, kohlrabi; assay type: in vivo; conditions: 1 g/l spray every 4 weeks for 3 months, no drought stress
Protocol: In order to determine the plant yield productivity under normal conditions, ‘Sabrina’, ‘Candonga’ and ‘Fortuna’ strawberry varieties, leek, lettuce, “Iceberg” variety, broccoli “Parthenon” variety, celery or kohlrabi plants, were grown under standard production conditions and 120 plants of each variety per treatment (where the treatment was a control comprising standard watering or 1 g/L of TMAO di-hydrate spray every four weeks) were analyzed. Plants were located in four (4) different positions for each group of 30 plants from the same treatment. Fruits, leaves or roots were harvested from individual plants and total weight was determined for each plant.
Root or leaves yield was determined in the plants treated with 1 g/l of TMAO di-hydrate or water as described above in order to evaluate the trade-off costs of the treatment with no drought stress.

[1] = test system: pepper plants ('Palermo'); assay: Pepper fruit production, spray or constant irrigation; assay type: in vivo
From the text: TMAO di-hydrate applied exogenously which increases the endogenous content of TMAO as if the plants were overexpressing an FMO protein at least 4 times increases pepper production per plant and pepper fruit weight under limited water irrigation and under no stress. ‘Palermo’ pepper seeds were sown, grown and treated as described above.

[2] = test system: barley plants ('Hispanic'); assay: Barley field seed production without irrigation; assay type: in vivo; conditions: no external irrigation
Protocol: In order to determine the drought or drought stress tolerance after seed treatments with TMAO di-hydrate and germination in the presence of TMAO di-hydrate, barley “Hispanic” seeds, corn “FAO700” seeds, and “Sambro” sunflower seeds were surface sterilized for 3 minutes in ethanol 70%, then rinsed twice and finally included in a pre-treatment solution of 1 g/L TMAO di-hydrate solution (or just water) under shaking for 3 hours at a dose of 1 litre per Kg of seeds. Then, the seeds were sown in randomized plots of 10 sqm in a surface of 2.000 sqm. Chlorophyll content was measured 1 month before harvest. In corn irrigation was applied in half of the plots while the other half only received an initial establishment watering. The barley plots received 200 l of rain per m^2 through the growing season. Some of the plots received a second spray treatment with 1 g/liter of TMAO. […] At least 3 independent plants were treated per experiment.
TMAO di-hydrate applied exogenously which increases the endogenous content of TMAO as if the plants were overexpressing an FMO protein at least 4 times increases seed production in barley grown in the field without irrigation. ‘Hispanic” barley seeds were sown, grown and treated as described. Both, seed treatments (each Kg of seed was soaked in 1 liter of a 1 g/1 L TMAO di-hydrate solution, although smaller volumes of this solution are also effective) and a combination of seed and spray treatments with 1 g/L TMAO di-hydrate increased plant grain production. The field experienced 200 l/m^2 of rain water in total through the season.

[3] = TMAO accumulation in pepper leaves after spray (NMR); conditions: 1 g/l spray
Protocol: TMAO content in plants was determined by harvesting three leaves per treatment and freezing them in liquid nitrogen before the Nuclear Magnetic Resonance spectroscopy (NMR) determination. At least three independent plants were treated per experiment. TMAO content in plant extracts was quantified by NMR spectrometry using a Bruker Advance DRX 500 MHz spectrometer equipped with a 5 mm inverse triple resonance probe head. A known concentration of [3-(trimethylsilyl) propionic-2,2,3,3-d4 acid sod. salt, (TSP-d4)] was used as internal reference. All experiments were conducted at 298K and the data was acquired and processed using the same parameters. Spectra processing was performed on PC station using Topspin 2.0 software (Bruker).
‘Murano’ pepper seeds and ‘Bomi’ barley seeds were sown and grown as described above. Control plants (six weeks old) were sprayed with water and pepper treated plants were sprayed with 1 g/l of TMAO di-hydrate while barley plants were sprayed with 1 g/l of TMAO di-hydrate formulated with 0.1% of C8-C10 Alkylpolysaccharide. Leaves were harvested and TMAO was determined by NMR. The percentage of TMAO increase compared to untreated controls was determined for each time point.

[4] = 30% water, 1 g/L in every irrigation
[5] = 1 g TMAO/1 Kg seed + 1 g/L spray

C[N+](C)(C)[O-].O.O [TMAO di-hydrate, trimethylamine N-oxide di-hydrate]
Yield production, % Control (kohlrabi plants): 103% | increase in average fruit weight production per pepper plant versus 100% irrigation untreated [1, 4]: 13.3% | increase in average weight per pepper fruit versus 100% irrigation untreated [1, 4]: 11.9% | AVERAGE FRUIT WEIGHT (GRAMS) PER PEPPER PLANT ([1]; 30% water, 1 g/L irrigation): 545.0 ± 36.4 GRAMS | AVERAGE FRUIT WEIGHT (GRAMS) PER PEPPER PLANT ([1]; 30% water, 1 g/L spray): 504.8 ± 46.4 GRAMS | AVERAGE WEIGHT (GRAMS) PER PEPPER FRUIT ([1]; 30% water, 1 g/L spray): 33.5 ± 0.9 GRAMS | increase in average fruit weight production per pepper plant versus 100% irrigation untreated ([1]; 30% water, 1 g/L spray): 4.9% | increase in average fruit weight production per pepper plant in the absence of stress ([1]; 100% water, 1 g/L in every irrigation): 17.9% | AVERAGE FRUIT WEIGHT (GRAMS) PER PEPPER PLANT ([1]; 100% water, 1 g/L irrigation): 567.4 ± 19.6 GRAMS | AVERAGE WEIGHT (GRAMS) PER PEPPER FRUIT ([1]; 100% water, 1 g/L irrigation): 35.7 ± 1.3 GRAMS | % Control (seed production) ([2]; 1 g TMAO/1 Kg seed): 18% | Average number of Grams per square meter (seed production) ([2]; 1 g TMAO/1 Kg seed): 225.98 ± 11.89 Grams per square meter | % Control (seed production) [2, 5]: 35% | Average number of Grams per square meter (seed production) [2, 5]: 256.36 ± 12.78 Grams per square meter | TMAO % Control ([3]; 1 day post spray): 529% | TMAO (μM) in leaves ([3]; 1 day post spray): 1755.2 µM | TMAO % Control ([3]; 10 days post spray): 373% | TMAO (μM) in leaves ([3]; 10 days post spray): 1237.6 µM | TMAO % Control ([3]; 20 days post spray): 286% | TMAO (μM) in leaves ([3]; 20 days post spray): 948.9 µM | TMAO % Control ([3]; 30 days post spray): 135% | TMAO (μM) in leaves ([3]; 30 days post spray): 449.2 µM | TMAO % Control ([3]; 40 days post spray): 213% | TMAO (μM) in leaves ([3]; 40 days post spray): 709.4 µM
